# pIC50: −log10 of the molar value.
# Test system: PDC KRAS tumor spheroids with HUVEC/MSC, viability
# Assay: Anticancer human tumor 349418-098-R-PDC patient-derived lung adenocarcinoma cell line growth inhibition [KRAS2]
# Details: for pIC50: curve of first compound; for viability, T/C: stronger effect = lower value
# Outline: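 Combination screen of spheroid viability in tumor-cell co-cultures with endothelial (HUVEC) and mesenchymal stem cell stroma. Each agent was tested in half-log dilutions, topping at clinical Cmax or at 10 microM without a known Cmax.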
# [1] = second compound 0.1 µM, first compound 0.0316 µM
# [2] = second compound 0.1 µM, first compound 0.1 µM
# [3] = second compound 0.1 µM, first compound 0.316 µM
# [4] = second compound 0.1 µM, first compound 1 µM
# [5] = second compound 0.1 µM, first compound 3.16 µM
# [6] = second compound 0.1 µM, first compound 10 µM
# [7] = second compound 0.316 µM, first compound 0.0316 µM
# [8] = second compound 0.316 µM, first compound 0.1 µM
# [9] = second compound 0.316 µM, first compound 0.316 µM
# [10] = second compound 0.316 µM, first compound 1 µM
# [11] = second compound 0.316 µM, first compound 3.16 µM
# [12] = second compound 0.316 µM, first compound 10 µM
# [13] = second compound 1 µM, first compound 0.0316 µM
# [14] = second compound 1 µM, first compound 0.1 µM
# [15] = second compound 1 µM, first compound 0.316 µM
# [16] = second compound 1 µM, first compound 1 µM
# [17] = second compound 1 µM, first compound 3.16 µM
# [18] = second compound 1 µM, first compound 10 µM
# [19] = second compound 3.16 µM, first compound 0.0316 µM
# [20] = second compound 3.16 µM, first compound 0.1 µM
# [21] = second compound 3.16 µM, first compound 0.316 µM
# [22] = second compound 3.16 µM, first compound 1 µM
# [23] = second compound 3.16 µM, first compound 3.16 µM
# [24] = second compound 3.16 µM, first compound 10 µM
# [25] = second compound 10 µM, first compound 0.0316 µM
# [26] = second compound 10 µM, first compound 0.1 µM
# [27] = second compound 10 µM, first compound 0.316 µM
# [28] = second compound 10 µM, first compound 1 µM
# [29] = second compound 10 µM, first compound 3.16 µM
# [30] = second compound 10 µM, first compound 10 µM
# 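Also: spheroids exposed to compounds for seven days before readout.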
Structure (SMILES),pIC50 (second compound 0.1 µM),pIC50 (second compound 0.316 µM),pIC50 (second compound 1 µM),pIC50 (second compound 3.16 µM),"viability, T/C [1] [%]","viability, T/C [2] [%]","viability, T/C [3] [%]","viability, T/C [4] [%]","viability, T/C [5] [%]","viability, T/C [6] [%]","viability, T/C [7] [%]","viability, T/C [8] [%]","viability, T/C [9] [%]","viability, T/C [10] [%]","viability, T/C [11] [%]","viability, T/C [12] [%]","viability, T/C [13] [%]","viability, T/C [14] [%]","viability, T/C [15] [%]","viability, T/C [16] [%]",further results
COC(=O)c1ccc2c(C(=Nc3ccc(N(C)C(=O)CN4CCN(C)CC4)cc3)c3ccccc3)c(O)[nH]c2c1 + CNCc1ccccc1-c1csc(C(C)Nc2nc(C)nc3cc(OC)c(OC)cc23)c1,6.35,6.57,7.27,> 7.50,84.1,96.6,55.8,29.8,12.4,12.9,75.3,84.9,42.5,25.7,6.84,13,56.5,41.4,27.6,10.6,"pIC50 (second compound 10 µM): > 7.50; viability, T/C [17]: 1.75%; viability, T/C [18]: 1.57%; viability, T/C [19]: 0.32%; viability, T/C [20]: 0.25%; viability, T/C [21]: 0.19%; viability, T/C [22]: 0.06%; viability, T/C [23]: 0.13%; viability, T/C [24]: 0.15%; viability, T/C [25]: 0.09%; viability, T/C [26]: 0.07%; viability, T/C [27]: 0.06%; viability, T/C [28]: 0.06%; viability, T/C [29]: 0.05%; viability, T/C [30]: 0.09%"
CCNC(=O)CC1N=C(c2ccc(Cl)cc2)c2cc(OC)ccc2-n2c(C)nnc21 (stereo unspecified) + CNCc1ccccc1-c1csc(C(C)Nc2nc(C)nc3cc(OC)c(OC)cc23)c1,6.88,6.91,7.11,> 7.50,103,58.5,24.3,12.4,2.7,1.11,107,55.7,24.7,13.5,2.81,1.21,86.6,39.5,13.9,4.94,"pIC50 (second compound 10 µM): > 7.50; viability, T/C [17]: 0.98%; viability, T/C [18]: 0.31%; viability, T/C [19]: 0.11%; viability, T/C [20]: 0.08%; viability, T/C [21]: 0.04%; viability, T/C [22]: 0.02%; viability, T/C [23]: 0.01%; viability, T/C [24]: 0.08%; viability, T/C [25]: 0.11%; viability, T/C [26]: 0.11%; viability, T/C [27]: 0.09%; viability, T/C [28]: 0.09%; viability, T/C [29]: 0.08%; viability, T/C [30]: 0.28%"
COc1cc(OC)cc(N(CCNC(C)C)c2ccc3ncc(-c4cnn(C)c4)nc3c2)c1,–,–,–,–,–,–,–,–,–,–,–,–,–,–,–,–,–,–,–,–,"viability, T/C (compound 0.0316 µM): 99% [middle of 4 runs]; viability, T/C (compound 0.1 µM): 102% [middle of 4 runs]; viability, T/C (compound 1 µM): 98.2% [middle of 4 runs]; viability, T/C (compound 3.16 µM): 38.9% [middle of 4 runs]; viability, T/C (compound 10 µM): 0.57% [middle of 4 runs]; IC50 (curve of compound): 2.53 µM [middle of 4 runs]"
CC1(C)CCC(CN2CCN(c3ccc(C(=O)NS(=O)(=O)c4ccc(NCC5CCOCC5)c([N+](=O)[O-])c4)c(Oc4cnc5[nH]ccc5c4)c3)CC2)=C(c2ccc(Cl)cc2)C1 + C=CC(=O)N1CCN(c2nc(OCC3CCCN3C)nc3c2CCN(c2cccc4cccc(C)c24)C3)CC1CC#N,5.87,5.82,5.93,> 7.50,96.2,94.8,76.5,66.2,13.6,4.13,92.6,87.5,77.1,72.1,10.9,3.73,76.8,75,68.2,57.7,"pIC50 (second compound 0.0316 µM): 5.77; viability, T/C (second compound 0.0316 µM, first compound 0.0316 µM): 97.5%; viability, T/C (second compound 0.0316 µM, first compound 0.1 µM): 100%; viability, T/C (second compound 0.0316 µM, first compound 0.316 µM): 89.4%; viability, T/C (second compound 0.0316 µM, first compound 1 µM): 80%; viability, T/C (second compound 0.0316 µM, first compound 3.16 µM): 13.8%; viability, T/C (second compound 0.0316 µM, first compound 10 µM): 4.29%; viability, T/C [17]: 4.26%; viability, T/C [18]: 1.75%; viability, T/C [19]: 0.15%; viability, T/C [20]: 0.15%; viability, T/C [21]: 0.14%; viability, T/C [22]: 0.2%; viability, T/C [23]: 0.09%; viability, T/C [24]: 0.11%"
CCNC(=O)CC1N=C(c2ccc(Cl)cc2)c2cc(OC)ccc2-n2c(C)nnc21 (stereo unspecified) + COc1cc2nc(C)nc(NC(C)c3cc(N)cc(C(F)(F)F)c3)c2cc1OC1CCOC1,7.03,6.97,7.00,7.25,80,48,20.6,7.27,2.39,0.58,105,51.4,21.9,7.39,2.09,0.7,85.2,49.9,16.4,6.15,"pIC50 (second compound 10 µM): > 7.50; viability, T/C [17]: 1.76%; viability, T/C [18]: 0.68%; viability, T/C [19]: 65.5%; viability, T/C [20]: 34.8%; viability, T/C [21]: 13.5%; viability, T/C [22]: 5.23%; viability, T/C [23]: 1.41%; viability, T/C [24]: 0.77%; viability, T/C [25]: 17%; viability, T/C [26]: 10.3%; viability, T/C [27]: 6.19%; viability, T/C [28]: 1.96%; viability, T/C [29]: 0.42%; viability, T/C [30]: 0.33%"
